Results reported in PubChem BioAssay (NCI).
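48-hour exposure; five concentrations; linearly interpolated endpoints. TGI is the concentration that stops growth completely.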

Columns and labels:
Test in all cases: NCI anticancer screen, dose series, 48 h
SF-539 CNS = system: SF-539 CNS
UACC-62 melanoma = system: UACC-62 melanoma
KM12 colon = system: KM12 colon
RXF 393 renal = system: RXF 393 renal
SK-MEL-5 melanoma = system: SK-MEL-5 melanoma
OVCAR-8 ovarian = system: OVCAR-8 ovarian
IGROV1 ovarian = system: IGROV1 ovarian
DU-145 prostate = system: DU-145 prostate
OVCAR-3 ovarian = system: OVCAR-3 ovarian
SF-295 CNS = system: SF-295 CNS
786-0 renal = system: 786-0 renal
SNB-19 CNS = system: SNB-19 CNS
MDA-N = system: MDA-N

| SMILES | TGI (SF-539 CNS) | TGI (UACC-62 melanoma) | TGI (KM12 colon) | TGI (RXF 393 renal) | TGI (SK-MEL-5 melanoma) | TGI (OVCAR-8 ovarian) | TGI (IGROV1 ovarian) | TGI (DU-145 prostate) | TGI (OVCAR-3 ovarian) | TGI (SF-295 CNS) | TGI (786-0 renal) | TGI (SNB-19 CNS) | TGI (MDA-N) |
| --- | --- | --- | --- | --- | --- | --- | --- | --- | --- | --- | --- | --- | --- |
| COc1ccccc1/C=C1\NC(=S)N(/C=C2\C(=O)Oc3ccccc3C2=O)C1=O | 96.7 µM | > 100 µM | > 100 µM | > 100 µM | 78.7 µM | > 100 µM | > 100 µM | > 100 µM | > 100 µM | > 100 µM | > 100 µM | > 100 µM | – |
| O=C(OCc1ccccc1)N(CCCCN(CCCNCc1ccccc1)C(=O)OCc1ccccc1)CCCNCc1ccccc1 | – | 3.19 µM | 1.6 µM | – | > 100 µM | 2.79 µM | 2.05 µM | 2.55 µM | – | > 100 µM | 1.29 µM | 1.11 µM | 0.983 µM |
| Cc1nnc(N)nc1/C=C/c1c(O)ccc2ccccc12 | – | 85 µM | > 100 µM | 36.2 µM | 94.4 µM | > 100 µM | 32.2 µM | > 100 µM | – | 56.9 µM | > 100 µM | > 100 µM | > 100 µM |
| COc1ccc(C2C3CCc4ccccc4C3=NN2S(=O)(=O)c2ccc(/C=C/C(=O)O)cc2)cc1 (stereo not drawn) | 6.29 µM | 23.8 µM | 43.4 µM | 31.4 µM | 18.6 µM | 92.5 µM | 4.91 µM | > 100 µM | 86.3 µM | 9.08 µM | 15.9 µM | > 100 µM | – |
| CC(=O)Nc1nnc(S(C)(=O)=O)s1 | > 100 µM | – | > 100 µM | > 100 µM | – | > 100 µM | – | > 100 µM | > 100 µM | > 100 µM | > 100 µM | > 100 µM | > 100 µM |
| C=C[C@]1(C)CCC2=C(CCC3C2(C)CCC[C@@]3(C)COC(C)=O)C1 (stereo partly drawn) | 37.9 µM | 45.8 µM | 34.7 µM | 37.8 µM | 31 µM | 34.6 µM | 38.1 µM | – | 32.1 µM | 32.5 µM | 31.8 µM | 31.9 µM | – |
| Nc1cc(=O)n(-c2ccccc2)c(=S)n1-c1ccccc1 | > 100 µM | > 100 µM | > 100 µM | > 100 µM | > 100 µM | > 100 µM | > 100 µM | – | > 100 µM | > 100 µM | > 100 µM | > 100 µM | – |
| Nc1nc2c(ncn2Cc2ccccc2CO)c(=O)[nH]1 | > 100 µM | > 100 µM | > 100 µM | – | > 100 µM | > 100 µM | > 100 µM | > 100 µM | > 100 µM | > 100 µM | > 100 µM | > 100 µM | – |
| Cc1cccc(-c2cc(=O)c3c(C)cc(C)nc3[nH]2)c1 | 12.1 µM | > 100 µM | 21.9 µM | > 100 µM | 15.8 µM | > 100 µM | > 100 µM | > 100 µM | 4.6 µM | > 63.8 µM | > 100 µM | > 100 µM | – |
| COC(=O)C1(C(=O)OC)N=C(C)OC1/C=C/c1ccccc1 (stereo not drawn) | – | > 100 µM | > 100 µM | > 100 µM | > 100 µM | > 100 µM | > 100 µM | > 100 µM | > 100 µM | > 100 µM | > 100 µM | > 100 µM | > 100 µM |
| Cc1cc(S(=O)(=O)/N=C(/[N-]S(=O)(=O)c2ccc(Cl)cc2)[n+]2ccc(N(C)C)cc2)c(SCC(=O)O)cc1Cl | > 100 µM | > 100 µM | > 100 µM | > 100 µM | – | > 100 µM | – | > 100 µM | > 100 µM | > 100 µM | > 100 µM | > 100 µM | – |
| CN1CCC2(CC1)C(=NC1CCCCC1)NC(=S)N2c1ccccc1 | > 100 µM | > 100 µM | > 100 µM | > 100 µM | > 100 µM | > 100 µM | > 100 µM | > 100 µM | – | > 100 µM | > 100 µM | > 100 µM | – |
| O=C(O)CC(Sc1ccccc1)c1ccccc1 (stereo not drawn) | – | > 100 µM | > 100 µM | > 100 µM | > 100 µM | > 100 µM | > 100 µM | > 100 µM | > 100 µM | > 100 µM | > 100 µM | > 100 µM | > 100 µM |
| O=C1CSC(c2c[nH]c3ccccc23)N1c1ccccc1[N+](=O)[O-] (stereo not drawn) | > 100 µM | > 100 µM | > 100 µM | – | > 100 µM | > 100 µM | > 100 µM | > 100 µM | > 100 µM | > 100 µM | > 100 µM | > 100 µM | > 100 µM |
| CC(=O)C1=C(C)N(c2ccc(C)cc2)C2(O)C3=C(C(=O)c4ccccc4C3=O)C(O)=CC12Cl (stereo not drawn) | > 100 µM | 26.5 µM | 33.8 µM | 50.8 µM | 22.2 µM | 53.4 µM | 52.6 µM | > 100 µM | 45 µM | 37.3 µM | > 100 µM | 35.8 µM | – |
| C1CC[C@H]2SSC3CCCC[C@H]3SSC2C1 (stereo partly drawn) | > 100 µM | > 100 µM | > 100 µM | – | > 100 µM | > 100 µM | > 100 µM | > 100 µM | > 100 µM | > 100 µM | > 100 µM | > 100 µM | > 100 µM |
| COc1cc(C2C(Cl)C(=O)N2NC(=O)c2ccc(N)cc2)cc(Br)c1O (stereo not drawn) | 35.2 µM | 30.4 µM | 30.7 µM | – | 31.7 µM | > 100 µM | 34 µM | – | 20.8 µM | 27.7 µM | 26 µM | 24 µM | – |
| O=c1cn[nH]c(=S)n1/N=C/c1c[nH]c2ccccc12 | > 100 µM | > 100 µM | > 100 µM | – | > 100 µM | 93.9 µM | 31.8 µM | > 100 µM | > 100 µM | > 100 µM | > 100 µM | > 100 µM | > 100 µM |
